Data reported in patent publication US20060128608A1, “Novel chemical compounds and their use” (priority 2002, published 2006).
≈ marks a conversion by molar mass, not a printed value.

Columns and labels:
P.aeruginosa ATCC27853 = assay: Antibiotic activity: minimum inhibitory concentration (MIC); type: cell-based; details: strain ATCC27853
Protocol: (§1) Antibiotic activities were determined using measurement of minimum inhibitory concentrations by standard procedures referring to the Manual of Commercial Methods in Clinical Microbiology. Ed. Allan L. Truant. ASM Press (2002) and are reported as concentrations (μM).

E.coli ATCC25922 = assay: as above; type: cell-based; details: Escherichia coli; strain ATCC25922
Protocol: as §1

## NCC[C@H](O)C(=O)N[C@@H]1C[C@H](N)[C@@H](O[C@H]2O[C@H](CN)[C@@H](O)[C@H](O)[C@H]2O)[C@H](O)[C@H]1O[C@H]1O[C@H](CO)[C@@H](O)[C@H](N)[C@H]1O [Amikacin, reference compound]
P.aeruginosa ATCC27853; Pseudomonas aeruginosa
  MIC: 7.5 µM (≈ 4.39 µg/mL)

## CCCCCCCCCCCCCCCC(=O)OCC1OC(OC2C(N)CC(N)C(OC3OC(CN)C(O)CC3N)C2O)C(O)C(N)C1O (stereo not drawn) [Compound 25, Tobramycin 6″-Palmitoyl Ester]
P.aeruginosa ATCC27853
  MIC: 16 µM (≈ 11.3 µg/mL)

## NCC1OC(OC2C(N)CC(N)C(OC3OC4COC(=O)CCCCCCCCCCC(=O)OC4C(N)C3O)C2O)C(N)CC1O (stereo not drawn) [Compound 30]
P.aeruginosa ATCC27853; Pseudomonas aeruginosa
  MIC: 64 µM (≈ 42.4 µg/mL)

## CCCCCCC(=O)OCC1OC(OC2C(N)CC(N)C(OC3OC(CN)C(OC(=O)CCCCCC)CC3N)C2O)C(OC(=O)CCCCCC)C(N)C1OC(=O)CCCCCC (stereo not drawn) [Compound 31]
P.aeruginosa ATCC27853; Pseudomonas aeruginosa
  MIC: 32 µM (≈ 29.3 µg/mL)

## NC1CC(O)C(CNC(=O)C[C@H](N)C(=O)O)OC1OC1C(N)CC(N)C(OC2OC(CO)C(O)C(N)C2O)C1O (stereo partly drawn) [Compound 32]
P.aeruginosa ATCC27853; Pseudomonas aeruginosa
  MIC: > 64 µM

## NC1CC(O)C(CNC(=O)[C@@H](N)CC(=O)O)OC1OC1C(N)CC(N)C(OC2OC(CO)C(O)C(N)C2O)C1O (stereo partly drawn) [Compound 33]
P.aeruginosa ATCC27853; Pseudomonas aeruginosa
  MIC: > 64 µM
E.coli ATCC25922
  MIC: > 32 µM

## NC[C@H]1O[C@H](O[C@H]2[C@H](O)[C@@H](O[C@H]3O[C@H](CO)[C@@H](O)[C@H](N)[C@H]3O)[C@H](N)C[C@@H]2N)[C@H](N)C[C@@H]1O [Tobramycin, reference compound]
P.aeruginosa ATCC27853; Pseudomonas aeruginosa
  MIC: 2 µM (≈ 0.935 µg/mL)

## Neomycin [reference compound]
P.aeruginosa ATCC27853
  MIC: 30 µM
